Tests used:
[1] = test system: renal ischemia-reperfusion C57BL/6 mice; conditions: 100 mg/kg oral, 24 hours of reperfusion
Experimental: Male C57BL/6 mice weighing 23 to 25 g were housed in a germ-free facility with controlled temperature and humidity. They were allowed free access to water and food. […] Renal ischemia was induced by midline laparotomy and occlusion of both renal pedicles using a Müller atraumatic vascular clamp for 25 minutes, followed by removal of the clamp for reperfusion. Control group (sham) underwent the same surgical procedures except the induction of ischemia using clamp. After 24 hours of reperfusion, the mice were sacrificed, and blood was collected from the heart, and the kidney tissue was harvested.
The collected blood was centrifuged at 3,000 rpm for 15 minutes to separate the serum, and the serum creatinine level, an indicator for evaluating kidney damage, was measured using the Jaffe method. The Jaffe method involves measuring the absorbance of the serum sample at 510 nm wavelength after reacting it with picric acid and then terminating the reaction with 60% acetic acid followed by measurement of absorbance, and calculating the concentration of creatinine in mg/mL units based on the difference in absorbance.
The total RNA was extracted from the kidney tissues using the Trizol method, and cDNA was synthesized using the RevertAid Reverse Transcription System (ThermoFisher). Quantitative PCR (qPCR) for inflammatory cytokines (IL-1β, IL-6, and MCP-1) was performed using the iQ SYBR Green Supermix (Bio-Rad) on the CFX Connect Real-Time PCR system (Bio-Rad). The relative amount of the target mRNA, normalized to GAPDH, was analyzed using the […].
The kidney tissue was homogenized in RIPA buffer, and protein quantification was performed using the BCA method. Western blot was then carried out using antibodies against nitrotyrosine and 4-hydroxynonenal (4-HNE), i.e., a product of lipid peroxidation.

[2] = test system: superoxide dismutase (SOD); experiment: Hippocampal SOD activity in ischemic stroke model; format: in vivo, Mongolian gerbils; conditions: hippocampus, 200 mg/kg i.p. once, twenty-four hours after reperfusion
Experimental: (§1) Three-month-old male Mongolian gerbils were induced with general anesthesia using 3% isoflurane and the anesthesia was maintained with 2.5% isoflurane gas. After sterilizing the neck area, a midline incision was made to expose both common carotid arteries, and microvessel clip was used to block the blood flow for 5 minutes, inducing cerebral ischemia to simulate a stroke. During the application of the microvessel clip, the body temperature was maintained at 37.0±0.5° C., and animals undergoing sham operation were used as the control group.
(§2) After inducing ischemia, the animal was, under reperfusion, intraperitoneally administered once with YQ peptide at a dose of 200 mg/kg. Two hours or twenty-four hours after the reperfusion, the animal was anesthetized with avertin. Then, the skull was quickly opened, and the brain was rapidly removed. The hippocampal tissue was collected and rapidly frozen in liquid nitrogen, then stored in a deep freezer. Subsequently, the activities of superoxide dismutase (SOD) and catalase (CAT) were measured by using SOD colorimetric activity kit and CAT colorimetric activity kit, respectively.

[3] = test system: azoxymethane (AOM) hyperammonemia C57BL/6 mice; experiment: Azoxymethane-induced hyperammonemia model; format: in vivo
Experimental: They were allowed free access to water and food. The mice were divided into four groups: (1) control group (Control), (2) hyperammonemia group administered with water (Veh+AOM), (3) hyperammonemia group administered with 100 mg/kg YQ peptide (YQ100+AOM), and (4) hyperammonemia group administered with 200 mg/kg YQ peptide (YQ200+AOM). YQ peptide was administered orally once a day for four consecutive days. On the fourth day, 2 hours after the last oral administration of YQ peptide, azoxymethane (AOM) at a dose of 100 mg/kg was intraperitoneally injected to induce hyperammonemia. To prevent dehydration 12 hours after AOM administration, 200 μl of physiological saline containing 0.5% glucose were injected into the abdominal cavity.
Ammonia is a primary metabolite of amino acids and nucleic acids, and the main enzymes involved in the conversion of ammonia into urea in urea cycle are found only in liver cells. In addition, the liver tissue is also rich in enzymes such as GS (glutamine synthetase) and SOD (superoxide dismutase), which help lower ammonia level, and catalase which removes reactive oxygen species. Therefore, a change in blood ammonia level as it travels from the liver to the brain through the bloodstream serves as an important indicator of hepatic encephalopathy. Accordingly, to measure the amount of blood ammonia, a PocketChem BA PA-4140 analyzer (Arkray, Japan), which is a single-wavelength reflectance measurement analyzer, was utilized. The analyzer measures the absorbance at 635 nm (LED) wavelength after the reaction 20 μl of blood with the test strip at room temperature for 3 minutes.
Western blot analysis was performed using an antibody against nitrotyrosine.

[4] = test system: chronic immobilization stress C57BL/6 mice; experiment: Cognitive function (ORT/OLT) in chronic immobilization stress model; format: in vivo; conditions: stress group, peptide-supplemented diet vs normal diet
Experimental: To analyze the long-term memory capacity of animals following the peptide diet of the present invention, both the object recognition test (ORT) and object location recognition test (OLT) were conducted (FIG. 1). The tests consisted of three phases: habituation, familiarization, and test. During the habituation phase, the animals were acclimated to the testing apparatus for 10 minutes per day over two days. On the third day at the familiarization phase, the animals were allowed to explore two identical objects for 10 minutes. Subsequently, on the fourth day at the test phase, one of the objects was replaced with a novel object, and the animals were allowed to explore for 10 minutes, with result recorded during the initial 5 minutes was used as test data. The object recognition test (ORT) index was calculated using the following formula.
Discrimination index=(N−F)/(N+F) • N: Time spent for exploring new object • F: Time spent for exploring familiar object
After 24 hours of performing the ORT, the location of the familiar object was changed, and the animals were allowed to explore for 5 minutes. During the total exploration time, the ratio of time spent exploring the object with a changed location was calculated to determine the object location recognition test (OLT) index.
A total of 28 seven-week-old male C57BL/6 mice were divided into two groups: a control group and a stress group. […]

[5] = test system: catalase (CAT); experiment: Hippocampal catalase activity in ischemic stroke model; format: in vivo, Mongolian gerbils; conditions: hippocampus, 200 mg/kg i.p. once, twenty-four hours after reperfusion
Experimental: as §1, §2

[6] = YQ200+AOM (200 mg/kg) vs veh+AOM, p<0.05

With tyrosine-glutamine [YQ] the “lipid peroxidation (4-HNE) in the kidney tissue” value ([1]; Western blot) was “significantly reduced”, the “proteins with nitrated tyrosine in the kidney tissue” value ([1]; Western blot) was “significantly reduced” and the “increase in expression level of IL-1β in kidney tissue” value ([1]; qPCR) was “statistically significantly inhibited”. The “increase in expression level of IL-6 in kidney tissue” value ([1]; qPCR) was “statistically significantly inhibited”, the “increase in expression level of MCP-1 in kidney tissue” value ([1]; qPCR) was “statistically significantly inhibited” and the SOD activity [2] was “activity increases”. For the same substance, the “expression level of nitrotyrosine in liver tissues” value [3, 6] was “statistically significant decrease”, the serum ammonia concentration [3, 6] was “statistically significant decrease” and the “increase in blood ammonia caused by AOM” value ([3]; YQ oral once a day four days (100 or 200 mg/kg)) was “significantly suppressed”. For the same substance, the “nitrotyrosine protein level in the liver tissue” value ([3]; YQ oral once a day four days, after AOM) was “significantly reduced”, the cognitive function [4] was “enhanced cognitive function” and the CAT activity [5] was “activity increases”.

From patent US20240050513A1, “COMPOSITION FOR PREVENTING, AMELIORATING, OR TREATING DISEASE CAUSED BY PROTEIN NITRATION […] WITH TERMINAL TYROSINE AS EFFECTIVE COMPONENT” (INDUSTRY-ACADEMIC COOPERATION FOUNDATION GYEONGSANG …, priority 2021, published 2024)
